Data on six molecules can be found in patent US20210379184A1, “Deep Eutectic Solvent Platform for Oral Pharmaceutical Formulations” (SeraNovo B.V., priority 2018, published 2021).

In brackets after ≈: the same amount, converted by molar mass.

This data set in a line: physchem. The source says: The DES systems contained propylene glycol, a specific polymer solubilizer, and one or more (NA)DES constituents.

A word on the solubility: it is the dissolved amount per volume that the medium holds.

Regarding `CCC(C)n1ncn(-c2ccc(N3CCN(c4ccc(OCC5COC(Cn6cncn6)(c6ccc(Cl)cc6Cl)O5)cc4)CC3)cc2)c1=O` (centres unmarked) [Itraconazole], the “Concentration solubilized API (mg/mL)” value was “up to 200 mg/mL” and the “factor by which the concentration solubilized in DES exceeds the solubility of the drug in water” value is given as ≤ 10.000.000. Where the note is “20 °C, pH 7, water”, this molecule displayed a solubility of 0.004 µg/mL (≈ 0.00567 µM). Further, the solubility (organic solvent or mixture, solubility of itraconazole) is less than 25000 µg/mL. For `NC(=O)N1c2ccccc2C=Cc2ccccc21` [Carbamazepine], the solubility (20 °C, pH 7, water) came out at 17 µg/mL (≈ 72 µM) and the solubility (organic solvent or mixture, Concentration solubilized API (mg/mL)) was more than 100000 µg/mL. Where the note is “20 °C, pH 7, water”, `COc1ccccc1OCCNCC(O)COc1cccc2[nH]c3ccccc3c12` (centres unmarked) [Carvedilol] returned a solubility of 0.6 µg/mL (≈ 1.48 µM). On the same count and under the same terms, for `O=C(O)c1ccccc1Nc1cccc(C(F)(F)F)c1` [Flufenamic Acid] the value was 9.1 µg/mL (≈ 32.4 µM). On the same count and under the same terms, for `CC(=O)N1CCN(c2ccc(OCC3COC(Cn4ccnc4)(c4ccc(Cl)cc4Cl)O3)cc2)CC1` (centres unmarked) [Ketoconazole] the value was 0.09 µg/mL (≈ 0.169 µM). Consider `CC(C)Cc1ccc(C(C)C(=O)O)cc1` (centres unmarked) [Ibuprofen], for which the “factor by which the concentration solubilized in DES exceeds the solubility of the drug in water” value is reported as “at least 100”. The molecule also yielded a solubility (20 °C, pH 7, water) of 21 µg/mL (≈ 102 µM).
